Source: the NIST ThermoML archive (doi:10.1021/je500669y)

Experiment: xn = mol fraction of the nth substance listed
Conditions: Gas, isochoric method

F/C=C/C(F)(F)F [trans-1,3,3,3-tetrafluoropropene] + C
Conditions | specific volume [m3/kg]
263.12 K, 541.7 kPa, x2 = 0.747 | 0.092
273.11 K, 305.7 kPa, x2 = 0.513 | 0.113
273.14 K, 216.8 kPa, x2 = 0.31 | 0.12
273.19 K, 565.7 kPa, x2 = 0.747 | 0.092
283.07 K, 225.4 kPa, x2 = 0.31 | 0.12
283.29 K, 1326.6 kPa, x2 = 0.748 | 0.041
283.3 K, 588.9 kPa, x2 = 0.747 | 0.092
283.38 K, 319 kPa, x2 = 0.513 | 0.113
288.33 K, 665.7 kPa, x2 = 0.496 | 0.051
293.03 K, 233.9 kPa, x2 = 0.31 | 0.12
293.03 K, 611.2 kPa, x2 = 0.747 | 0.092
293.06 K, 330.6 kPa, x2 = 0.513 | 0.113
293.17 K, 1381 kPa, x2 = 0.748 | 0.041
293.26 K, 456.1 kPa, x2 = 0.251 | 0.056
293.33 K, 681.4 kPa, x2 = 0.496 | 0.051
303.15 K, 474.1 kPa, x2 = 0.251 | 0.056
303.16 K, 242.4 kPa, x2 = 0.31 | 0.12
303.16 K, 711.2 kPa, x2 = 0.496 | 0.051
303.16 K, 1435.1 kPa, x2 = 0.748 | 0.041
303.22 K, 634.1 kPa, x2 = 0.747 | 0.092
303.23 K, 342.7 kPa, x2 = 0.513 | 0.113
313.15 K, 251 kPa, x2 = 0.31 | 0.121
313.15 K, 995.8 kPa, x2 = 0.261 | 0.026
313.19 K, 354.4 kPa, x2 = 0.513 | 0.113
313.2 K, 1488.8 kPa, x2 = 0.748 | 0.041
313.22 K, 1512.1 kPa, x2 = 0.513 | 0.024
313.23 K, 657.6 kPa, x2 = 0.747 | 0.092
313.24 K, 738.5 kPa, x2 = 0.496 | 0.051
323.17 K, 259 kPa, x2 = 0.31 | 0.121
323.17 K, 510.4 kPa, x2 = 0.251 | 0.056
323.19 K, 366.1 kPa, x2 = 0.513 | 0.113
323.19 K, 765.2 kPa, x2 = 0.496 | 0.051
323.21 K, 1040.8 kPa, x2 = 0.261 | 0.026
323.27 K, 1573.2 kPa, x2 = 0.513 | 0.024
323.29 K, 1542.4 kPa, x2 = 0.748 | 0.041
323.35 K, 680.5 kPa, x2 = 0.747 | 0.092
333.18 K, 1636.8 kPa, x2 = 0.513 | 0.024
333.2 K, 702.6 kPa, x2 = 0.747 | 0.092
333.2 K, 792 kPa, x2 = 0.496 | 0.051
333.25 K, 378.1 kPa, x2 = 0.513 | 0.113
333.25 K, 1083.7 kPa, x2 = 0.261 | 0.026
333.25 K, 1595.7 kPa, x2 = 0.748 | 0.041
333.27 K, 267.5 kPa, x2 = 0.31 | 0.121
343.11 K, 546.9 kPa, x2 = 0.251 | 0.056
343.12 K, 1126.5 kPa, x2 = 0.261 | 0.026
343.16 K, 389.7 kPa, x2 = 0.513 | 0.113
343.18 K, 275.8 kPa, x2 = 0.31 | 0.121
343.23 K, 818.7 kPa, x2 = 0.496 | 0.051
343.23 K, 1648.5 kPa, x2 = 0.748 | 0.041
343.25 K, 725.3 kPa, x2 = 0.747 | 0.092
343.34 K, 1700.6 kPa, x2 = 0.513 | 0.024
353.15 K, 747.4 kPa, x2 = 0.747 | 0.092
353.17 K, 284.2 kPa, x2 = 0.31 | 0.121
353.22 K, 401.5 kPa, x2 = 0.513 | 0.113
353.23 K, 1167.7 kPa, x2 = 0.261 | 0.026
353.23 K, 1701.4 kPa, x2 = 0.748 | 0.041
353.24 K, 845 kPa, x2 = 0.496 | 0.051
353.34 K, 1759 kPa, x2 = 0.513 | 0.024
363.15 K, 292.6 kPa, x2 = 0.31 | 0.121
363.16 K, 1209.5 kPa, x2 = 0.261 | 0.026
363.19 K, 1820.5 kPa, x2 = 0.513 | 0.024
363.21 K, 770.2 kPa, x2 = 0.747 | 0.092
363.24 K, 413.1 kPa, x2 = 0.513 | 0.114
363.25 K, 871.2 kPa, x2 = 0.496 | 0.051
363.28 K, 1754.1 kPa, x2 = 0.748 | 0.041
373.1 K, 424.6 kPa, x2 = 0.513 | 0.114
373.1 K, 1251.1 kPa, x2 = 0.261 | 0.026
373.11 K, 1881.5 kPa, x2 = 0.513 | 0.024
373.2 K, 301 kPa, x2 = 0.31 | 0.121
373.23 K, 600.7 kPa, x2 = 0.251 | 0.056
373.23 K, 897.8 kPa, x2 = 0.496 | 0.051
373.27 K, 792.6 kPa, x2 = 0.747 | 0.092
373.27 K, 1806.6 kPa, x2 = 0.748 | 0.041
383.17 K, 1940.6 kPa, x2 = 0.513 | 0.025
383.18 K, 1291.3 kPa, x2 = 0.261 | 0.026
383.25 K, 815 kPa, x2 = 0.747 | 0.092
383.28 K, 309.5 kPa, x2 = 0.31 | 0.121
383.3 K, 437 kPa, x2 = 0.513 | 0.114
383.31 K, 1859.5 kPa, x2 = 0.748 | 0.041
383.33 K, 924.1 kPa, x2 = 0.496 | 0.051
393.06 K, 1327 kPa, x2 = 0.261 | 0.026
393.1 K, 2000.7 kPa, x2 = 0.513 | 0.025
393.13 K, 317.8 kPa, x2 = 0.31 | 0.121
393.14 K, 837.2 kPa, x2 = 0.747 | 0.092
393.22 K, 448.6 kPa, x2 = 0.513 | 0.114
393.32 K, 950.3 kPa, x2 = 0.496 | 0.051
393.33 K, 1911.9 kPa, x2 = 0.748 | 0.041
403.03 K, 2059.7 kPa, x2 = 0.513 | 0.025
403.12 K, 1366.9 kPa, x2 = 0.261 | 0.026
403.17 K, 460.3 kPa, x2 = 0.513 | 0.114
403.18 K, 326.4 kPa, x2 = 0.31 | 0.121
403.21 K, 860 kPa, x2 = 0.747 | 0.092
403.26 K, 1963.8 kPa, x2 = 0.748 | 0.041
403.27 K, 976.2 kPa, x2 = 0.496 | 0.051
412.96 K, 2117.2 kPa, x2 = 0.513 | 0.025
413.15 K, 1405.5 kPa, x2 = 0.261 | 0.026
413.18 K, 472 kPa, x2 = 0.513 | 0.114
413.23 K, 881.9 kPa, x2 = 0.747 | 0.092
413.29 K, 2016 kPa, x2 = 0.748 | 0.041
413.3 K, 1002.5 kPa, x2 = 0.496 | 0.052
413.34 K, 334.9 kPa, x2 = 0.31 | 0.121
413.38 K, 671.6 kPa, x2 = 0.251 | 0.056
